System: heparinized whole blood
Assay: Drug screening: inhibitor preincubation of whole blood, then PBS or rIL-2 stimulation, mRNA quantification
Format: cell-based, human
Text: Beta-actin expression served as a control for the expression assay. Offensive immune markers characterized included tumor necrosis factor superfamily (TNFSF) 1 (lymphotoxin), 2 (TNFα), 5 (CD40L), 6 (FasL), 8 (CD30L), 9 (CD137L), 14 (LIGHT), and 15 (TL1A). Chemokines characterized included CCL2, CCL3, CCL4, CCL8, CCL11, CCL20, CXCL1, CXCL2, CXCL3, CXCL10. Interleukins characterized include IL6, IL8, IL10, IL17, and IL23. Immune effectors characterized include GM-CSF, INFγ, CD16, Granzyme B, CD122, and TGFB-1. Markers of defensive immune function characterized include FoxP3, CTLA4, CD25, and GARP-1. Other offensive or defensive immune markers, as well as other chemokines, interleukins or effectors (among other immune-associated markers) can be tested in certain embodiments.
Shaded boxes represent a fold increase of greater than 2 as well as a statistical p value of <0.05. […] The various inhibitor compounds used to pre-treat the whole blood samples are listing on the x-axis. […] Thus, this compound has a potential to block or reduce the offensive immune response and may function as a pro-immunosuppressant compound. […] Thus, from this set of experiments, it is unclear if this particular Jak inhibitor is well-suited for promoting offensive or defensive immune responses. Further dose-response studies and/or studies with additional immune markers are necessary to elucidate the efficacy of this compound.
Embodiments of the methods described herein are also well suited to the characterization of various derivative or modified compounds, in that a single assay can generate side by side data comparing of a panel of putative derivative compounds. Moreover, based on the distinct features of the data described above, embodiments of the methods described herein are useful to detecting defensive-specific (i.e. pro-offensive) inhibitor compounds for use in clinical situations. Thus, this assay platform is useful for the analysis/screening of common and selective inhibitors for offensive and defensive immune functions.

| Compound | induction of IFNγ in response to PBS or rIL-2 in presence of inhibitor (additional experiments, FIG. 4A-4B) | induction of TNFSF-1 in response to PBS or rIL-2 in presence of inhibitor (additional experiments, FIG. 4C-4D) | induction of CD25 in response to PBS or rIL-2 in presence of inhibitor (additional experiments, FIG. 4G-4H) | induction of FoxP3 in response to PBS or rIL-2 in presence of inhibitor (additional experiments, FIG. 4I-4J) | induction of TNFSF1 mRNA in response to rIL-2 in presence of inhibitor (inhibitor 10 mM, 1 hour preincubation, then rIL-2 100 ng/ml 4 hours, FIG. 3A) | induction of CD25 mRNA in response to rIL-2 in presence of inhibitor (inhibitor 10 mM, 1 hour preincubation, then rIL-2 100 ng/ml 4 hours, FIG. 3I) | induction of FoxP3 mRNA in response to rIL-2 in presence of inhibitor (inhibitor 10 mM, 1 hour preincubation, then rIL-2 100 ng/ml 4 hours, FIG. 3J) |
| --- | --- | --- | --- | --- | --- | --- | --- |
| O=C1Nc2ccccc2/C1=C1/Nc2ccccc2/C1=N\OCC(O)CO (stereo not shown) [E084] | specific inhibition | specific inhibition | induced | induced |  |  |  |
| CC(C)(C)c1nc2c3cc[nH]c(=O)c3c3cc(F)ccc3c2[nH]1 [Jak inhibitor] |  |  |  |  | no induction | blocks induction | blocks induction |
